Measured values as given in US7378081B2, “Composition and method for direct visualization of the human appendix” (Vincon Research Enterprises, LLC, priority 2003, dated 2008).

System: human appendix
Experiment: Clinical data on delivery and concentration of diatrizoate iodine in the appendix
Type: in vivo
Details: following oral administration
Experimental: The bioavailability and release profile of diatrizoate appear dependent on both concentration and pH, which explains why
Critical to efficacy of the composition are ‘gasless’ enteric conditions and neutralization of the harsh acidity of gastric secretions that appear to inhibit the transit of intact diatrizoate to the appendix. Clinical trials show optimal appendiceal visualization at a critical concentration of 2.8 mg % iodine; however 5 mg % is considered optimal for ideal image contrast.

time until organically bound iodine is delivered and concentrated in the human appendix: approximately 50 minutes
Structure (SMILES): CC(=O)Nc1c(I)c(NC(C)=O)c(I)c(C(=O)O)c1I [diatrizoate, 1-deoxy-1-(methylamino)-D-glucitol-3,5-diacetamido-2,4,6-triiodobenzoate]
